Tests used:
[1] = tested on: primary mouse cortical neuron cells; assay: Viability after freeze/thaw in solutions comprising different necrostatins; format: cell-based; conditions: necrostatin 20 nM with other components of the soln unchanged; vs vehicle cryopreserved with 10% DMSO
Description: Several analogs of necrostatins were studied and found to work similarly in their cryoprotective effect after freeze/thaw.

[2] = tested on: stem cells (motor neuron precursors); assay: Motor neuron identity (CHAT1) after freezing of stem cells; format: cell-based; conditions: frozen in solutions comprising 0.01 μM cyspA, or 20 nM Nec1, or 5 nM iMAC2; vs frozen in the absence of these compounds
Description: Cellular freeze/thaw cycle causes stem cells to lose their identity, as measured by the level of CHAT1 in motor neurons. […] As shown here (FIG. 3), each of cyspA, Nec1, and IMAC2 provided cryoprotection to stem cells upon freezing, maintaining cellular characteristics. Cryoprotectants in solution used to freeze the cells, maintained motor neuron identity, as measure by the level of CHAT1.

Row | Compound | percent viability [1] | CHAT1 levels [2]
1 | COc1ccc2c(c1)C1=NN(C(C)=O)C(c3ccc(F)cc3)C1CC2 (centres unmarked) [Nec3] | significantly enhanced percent viability | 
2 | Cl.Cl.OC(CN1CCNCC1)Cn1c2ccc(Br)cc2c2cc(Br)ccc21 (centres unmarked) [iMAC2, 3,6-Dibromo-a-(1-piperazinylmethyl)-9H-carbazole-9-ethanol dihydrochloride] |  | maintained CHAT1 levels
